These results are taken from patent publication US4232017A, “Treatment of psychic disorders and inflammation with fused isoquinolines” (Gruppo Lepetit S.p.A., priority 1978, dated 1980).

Molecules are shown by their SMILES. Like-named read-outs stand apart in the source and are kept apart here. Some results are limits rather than exact numbers.

Series [1] is described as follows: Acute toxicity (LD50) in mice, oral. As to conditions: mouse, in vivo, p.o. How it is done:
(§1) Moreover, they display a considerably low toxicity as, generally, their LD50 values are never lower than 600 mg/Kg when given i.p. and never lower than 1000 mg/Kg when given orally to mice.

The subject of series [2] is carrageenin induced edema in rats. The series is described as follows: carrageenin induced edema test (Winter et al.). Format: in vivo. As to conditions: for significant reduction of the edema over the control: oral, about 1/5 to about 1/10 of the LD50. On the procedure:
As stated above, the compounds of the invention show also a remarkable antiinflammatory action, which was ascertained by means of the "carrageenin induced edema test" in rats. Said test was performed according to the operative scheme proposed by C. A. Winter et al., Proc., Soc. Exptl.
(In general: In the carrageenan paw model, swelling and tenderness develop within hours.)

For another series, the system named is rats. The series is described as follows: pole climbing avoidance test (antianxiety activity; Maffii). As to conditions: for responders at 30 mg/kg / responders at 60 mg/kg / responders at 15 mg/kg / responders at 10 mg/kg: Rattus norvegicus, ip; for responders at 30 mg/kg: 30 mg/Kg i.p.; for responders at 60 mg/kg: 60 mg/Kg i.p.; for influence on the CR and the UR: i.p., about 15 to about 60 mg/Kg; for responders at 15 mg/kg: 15 mg/Kg i.p.; for responders at 10 mg/kg: 10 mg/Kg i.p. Format: in vivo. An excerpt: The CNS-depressant activity in mammals was investigated by means of the general psychophysic screening method, as described by S. Irwin in Psychopharmacologia (Berl.), 13, 222-257, 1968. […] It is to be noted that the above parameters are directly connected with sedative, hypnotic and miorelaxing properties. The antianxiety activity of the compounds of the invention was investigated by means of the "pole climbing avoidance test", performed as described by G. Maffii in Journ. Pharm. Pharmacol., 11, 129, 1959, wherein a conditioned animal (generally a rat) is deconditioned i.e., is brought to its normal psychic behavior by administration of a suitable amount of the compound to be tested. According to G. Maffii, an inhibition of the secondary conditioned response (CR2) without a contemporary or coupled with a not significant inhibition of the primary conditioned response (CR) and the unconditioned response (UR) is a clear indication of an antianxiety effect since these last two parameters are connected with sedative and hypnotic properties.

A short description of series [3]: Acute toxicity (LD50) in mice, i.p. As to conditions: mouse, in vivo, ip. How it is done:
as §1

Setting [4] is: read-out: CR2 (secondary conditioned response), Decond./Conditioned.
[5] abbreviates: read-out: CR (primary conditioned response), Decond./Conditioned.
Where [6] appears, read: read-out: UR (unconditioned response), Decond./Conditioned.

As a reminder, the LD50 is the dose at which mortality reaches 50%. Low readings indicate a more toxic substance, high ones a less toxic substance. On to `CCc1nc2c3ccccc3c(=O)n(C)c2s1` [Example 9, 2-Ethyl-4-methyl-thiazolo[5,4-c]isoquinoline-5(4H)-one], for which the LD50 in series [1] was determined as 1000 mg/kg. The “% Decrease of the induced edema” value worked out at 25% in series [2] (50 mg/kg p.o.), 31% in series [2] (100 mg/kg p.o.) and 40% in series [2] (200 mg/kg p.o.). Also, the “significant reduction of the edema over the control” value (“significant reduction of the edema” for short) in series [2] is at least 40%.
For `CCc1nn(C)c2nc(OCCO)c3ccccc3c12` [Example 25, 1-Ethyl-5-hydroxyethoxy-3-methyl-3H-pyrazolo[3,4-c]isoquinoline], the figures for the responders at 30 mg/kg in the series on rats (setting [4]), in the series on rats (setting [5]) and in the series with rats (setting [6]) were 50%, 0% and 0%, respectively. For the same molecule, the values for the responders at 60 mg/kg in the series with rats (setting [4]), with rats (setting [5]) and in the series with rats (setting [6]) were 70%, 0% and 0%, respectively. Moreover, the “influence on the CR and the UR” value in the series on rats is “practically no influence”. The median lethal dose (LD50) in series [3] is over 600 mg/kg.
In the case of `CCn1c(=O)c2ccccc2c2nc(C)sc21` [Example 2(N-isomer), 4-Ethyl-2-methyl-thiazolo[5,4-c]isoquinoline-5(4H)-one], the responders at 15 mg/kg was 50% in the series with rats (setting [4]), 0% in the series on rats (setting [5]) and 0% with rats (setting [6]). The responders at 30 mg/kg with rats (setting [4]) was 80%; in the series on rats (setting [5]), 0%; in the series on rats (setting [6]), 0%. The “influence on the CR and the UR” value in the series on rats is “practically no influence”. The LD50 in series [3] worked out at 400 mg/kg.
As to `CCc1nn(C)c2nc(OCC(C)=O)c3ccccc3c12` [Example 26, 5-Acetylmethoxy-1-ethyl-3-methyl-3H-pyrazolo[3,4-c]isoquinoline], the LD50 in series [1] was over 1000 mg/kg; in series [3] it was over 600 mg/kg. Further, the responders at 30 mg/kg in the series with rats (setting [4]) turned out to be 50%; with rats (setting [5]), 0%; with rats (setting [6]), 0%. Also, the responders at 60 mg/kg in the series with rats (setting [4]) was 100%; in the series on rats (setting [5]), 0%; in the series with rats (setting [6]), 0%. For the same molecule, in the series on rats, the “influence on the CR and the UR” value is recorded as “practically no influence”. Moreover, the “% Decrease of the induced edema” value in series [2] (50 mg/kg p.o.) came out at 30%; in series [2] (100 mg/kg p.o.), 37%; in series [2] (200 mg/kg p.o.), 43%. Besides, in series [2], the “significant reduction of the edema” value is at least 40%.
Regarding `CCCCn1c(=O)c2ccccc2c2nc(C)sc21` [5(N-isomer), 4-Butyl-2-methyl-thiazolo[5,4-c]isoquinoline-5(4H)-one], the LD50 in series [1] is over 1000 mg/kg; in series [3], 600 mg/kg. Further, the responders at 60 mg/kg with rats (setting [4]) stood at 50%; in the series with rats (setting [5]) it was 0%; in the series with rats (setting [6]), 0%. For the same molecule, the entries for the “% Decrease of the induced edema” value in series [2] (50 mg/kg p.o.), in series [2] (100 mg/kg p.o.) and in series [2] (200 mg/kg p.o.) were 28%, 37% and 51%, respectively. In series [2], the “significant reduction of the edema” value is at least 40%.
In the case of `CCCCOc1nc2c(c(C)nn2C)c2ccccc12` [Example 24, 5-Butoxy-1,3-dimethyl-3H-pyrazolo[3,4-c]isoquinoline], the results for the LD50 in series [1] and in series [3] were 1000 mg/kg and over 600 mg/kg, respectively. The responders at 30 mg/kg with rats (setting [4]) was determined as 60%; in the series with rats (setting [5]), 0%; in the series with rats (setting [6]), 0%. Further, the responders at 60 mg/kg worked out at 100% in the series on rats (setting [4]), 30% in the series on rats (setting [5]) and 0% in the series on rats (setting [6]). Further, in the series on rats, the “influence on the CR and the UR” value is “practically no influence”. The entries for the “% Decrease of the induced edema” value in series [2] (50 mg/kg p.o.), in series [2] (100 mg/kg p.o.) and in series [2] (200 mg/kg p.o.) were 26%, 38% and 45%, respectively. Also, in series [2], the “significant reduction of the edema” value is at least 40%.
Take `CCCCOc1nc2sc(C)nc2c2ccccc12` [5(O-isomer), 5-butoxy-2-methyl-thiazolo[5,4-c]isoquinoline]: the responders at 60 mg/kg in the series on rats (setting [4]) stood at 50%; with rats (setting [5]), 0%; with rats (setting [6]), 0%. The LD50 in series [3] turned out to be 600 mg/kg.
In the case of `Cc1nc2c3ccccc3c(=O)n(C)c2s1` [Example 1, 2,4-Dimethyl-thiazolo[5,4-c]isoquinoline-5(4H)-one], the LD50 in series [1] was over 1000 mg/kg. The “% Decrease of the induced edema” value was determined as 25% in series [2] (20 mg/kg p.o.), 38% in series [2] (50 mg/kg p.o.), 46% in series [2] (100 mg/kg p.o.) and 61% in series [2] (200 mg/kg p.o.). For the same molecule, in series [2], the “significant reduction of the edema” value is listed as at least 40%.
Take `Cc1nn(C)c2c1c1ccccc1c(=O)n2CCN1CCN(c2ccccc2)CC1.Cl` [Example 38, 1,3-Dimethyl-4-[2-(4-phenyl-1-piperazinyl)ethyl]-3H-pyrazolo[3,4-c]isoquinoline-5(4H)-one hydrochloride]: the responders at 30 mg/kg with rats (setting [4]) worked out at 90%; in the series on rats (setting [5]) it was 10%; in the series on rats (setting [6]), 0%. Moreover, the figures for the responders at 60 mg/kg in the series on rats (setting [4]), in the series on rats (setting [5]) and in the series with rats (setting [6]) were 100%, 40% and 0%, respectively. Moreover, the “influence on the CR and the UR” value with rats is given as “practically no influence”. Also, the LD50 in series [3] is over 600 mg/kg.
Regarding `Cc1nn(C)c2nc(OCCO)c3ccccc3c12` [Example 20, 5-(2-Hydroxyethoxy)-1,3-dimethyl-3H-pyrazolo[3,4-c]isoquinoline], in the series with rats (setting [4]), the responders at 10 mg/kg came to 60%, the responders at 30 mg/kg was determined as 70% and the responders at 60 mg/kg came to 90%. In addition, in the series with rats (setting [5]), the responders at 10 mg/kg worked out at 10%, the responders at 30 mg/kg came to 30% and the responders at 60 mg/kg was found to be 30%. Further, in the series on rats (setting [6]), the responders at 10 mg/kg was 0%, the responders at 30 mg/kg was 0% and the responders at 60 mg/kg was 0%. The “influence on the CR and the UR” value with rats is listed as “practically no influence”. In addition, in series [3], the LD50 was over 600 mg/kg.
